Assays:
[1] = tested on: A549 cells; assay: A549 cell proliferation, MTT assay; format: cell-based, human
Summary of the method: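 A549 cells, ~2000/well, given compounds at 5-1000 nM or 0.15% ethanol vehicle after 24 h, quadruplicates, up to 96 h at 37° C. MTT added 4 h, dye extracted in acidified isopropanol and read at 570 nm; MTT signal linear with cell number.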

[2] = tested on: PLD activity in differentiated HL-60 cells; assay: PLD activity (PEt formation) in differentiated HL-60 cells; format: cell-based, human; details: differentiated HL-60 cells, biphasic response
Protocol: Cell cultures and differentiation. HL-60 cells were seeded in RPMI medium supplemented with 100 U/ml penicillin, 100 μg/ml streptomycin, and 10% fetal calf serum (Hyclone, Logan, Utah), incubated at 37° C. with 5% CO2 atmosphere in 250 ml flasks. Individual flasks containing ˜[…] next received dimethyl sulfoxide (DMSO) (1.12% v/v, 120 h) or retinoic acid (RA) (1 μM, 120 h) or phorbol myristate acetate (PMA) (20 nM, 48 h). Before performing binding assays, cells were washed twice in phosphate buffered saline (PBS), Ca^2+- and Mg^2+-free, enumerated and suspended at 20×10^6 cells/ml in Tris buffer (10 mM), pH 7.4 (Fiore, S. et al.(1992) J. Biol. Chem. 267:16168). Nitro blue tetrazolium reduction was performed to monitor induction of polymorphonuclear phenotype as in (Imaizumi, M. and Breitman, T. R. (1986) Blood 67:1273), and cell adherence was determined for induction of macrophage-like phenotype (Collins, S. J. (1987) Blood 70:1273). Human umbilical vein endothelial cells (HUVEC) maintained in culture third passage were obtained from Dr. M. Gimbrone (Brigham and Women's Hospital Department of Pathology).
PLD activity. Human PMN and HL-60 cells (50×10^6 cells/ml) prepared as above were incubated with ^3H-myristic acid or ^3H-palmitic acid (8 μCi/50×10^6 cells) for 40-60 min at 37° C. in PBS. Cell uptake ranged between 60-80% of added label, 7.1±4.2% (n=10; mean ±S.D.) and 32.6±10.3% (n=6; mean ±S.D.) into total phospholipid classes of PMN and HL-60 cells, respectively. Incubations were carried out at 37° C. (10 ×10^6 cells/ml PBS). […] At indicated times, incubations were stopped by adding 3.5 ml of ice cold CHCl3/MeOH (2/5, v/v) containing 1-^14C-arachidonic acid (5,000 cpm) used here as internal standard to quantitate extraction recoveries. […] Regions corresponding to PA, PEt, and internal standards were scraped and quantified by liquid scintillation counting. […] All values reported for PEt formation in Tables 4 and 5 were calculated by subtracting the dpm obtained in the presence of […]. […]

In the case of `CCCCC[C@H](O)/C=C/C=C\C=C\C=C\[C@@H](O)[C@@H](O)CCCC(=O)O` [LXA4, (5S, 6R, 15S)-trihydroxy-7E, 9E, 11Z, 13E-eicosatetraenoic acid], the “inhibition of A549 cell proliferation over time” value ([1]; 1 μM, after 72 and 96 hours of treatment) is reported as “inhibited A549 cell proliferation”, the inhibition at 0.1 µM ([1]; Homo sapiens, A549, 10^−7 M, 72 hours at 37° C., mean ± SEM, 3 to 7 experiments) is reported as 16.3 ± 5.2% and the IC50 ([1]; Homo sapiens, A549, MTT assay, 72 hours, read-out: half maximum inhibition (IC50) of A549 cell proliferation) is reported as ~0.08 µM. For the same compound, the “concentration of apparent maximum, PEt formation” value [2] was 10^−9 M.

— patent US20030134901A1, “Lipoxin compounds and their use in treating cell proliferative disorders” (priority 1993, published 2003)
